Reference: PMC5296733, “Functional Coupling of Human Microphysiology Systems: Intestine, Liver, Kidney Proximal Tubule, Blood-Brain Barrier and Skeletal Muscle” (Scientific Reports, 2017)

What was measured:
[1] = system: static SQL-SAL liver model; assay: Static 4-cell SQL-SAL liver in 96-well microplates (vitamin D3); assay type: in vitro ADME, human
Method: Media without dexamethasone was used to avoid downstream toxicity to the human neurons in the NVU. […]
The intestinal/liver-conditioned media efflux was collected and samples were tested by MS or transported on dry ice for testing in the kidney module, or the BBB/NVU module.
Dexamethasone, normally used to maintain hepatocyte differentiation, was removed from the liver media for functional coupling to avoid downstream toxicity to the human neurons in the NVU. […] Briefly, cryopreserved human hepatocytes were seeded into collagen type 1 coated 96-well plates at 26,000 hepatocytes/well and allowed to attach overnight in hepatocyte plating media (HPM). The HPM was decanted and 1.25x10^5 Ea.Hy.926 endothelial cells and 8 X10^4 differentiated U937 immune cells in MEM media supplemented with 10% FBS and L-Glutamine were added. After 2 h the media was decanted and 40 µL of a slurry of 1.5 mg/mL gelling collagen type 1 in Williams E media with 4 X 10^4 LX-2 stellate cells was added.

Liver MPS Organ Module = assay: Effect of vitamin D binding protein on recovery and metabolism in liver module; assay type: in vitro ADME, human; conditions: 7 μM VitD3
Method: Media without dexamethasone was used to avoid downstream toxicity to the human neurons in the NVU. […] Media samples were collected after 24 h and 48 h incubations.
Samples from the treatment conditions were collected after 24-h and 48-h incubations and stored in amber glass vials at -80°C for LC-MS/MS analysis.

[2] = system: differentiated human jejunal enteroids; conditions: human, 24 h, 100 µM
Description: (§1) Mass spectrometry was used to measure the concentration of compound and metabolites in the media following exposure in each MPS organ module.
(§2) Human jejunal enteroid cultures were isolated from two separate donors as described[59] and maintained in culture as spherical enteroids in Matrigel (Becton Dickinson, Franklin Lakes, NJ) until dissociated and plated as monolayer cultures on collagen IV coated polyethylene terephthalate (PET) Transwell® membrane inserts (Corning, Inc., Corning, NY) (Fig. 1A)[55][59][60][61]. The apical chamber received 100 μl of a 5 × 10^6/mL of the suspended cells in proliferation media. The basolateral chamber received 600 μl of proliferation media. […] Jejunal barrier monolayer with intact tight junctions were established by TEER testing and the restricted diffusion of 4 kD FITC-dextran polymers over the 24 h period (Supplemental Information Supplemental Table S8).
(§3) TMA was prepared at a concentration 3 mM by dissolving the neat compound directly into intestinal apical media. […] The dried residue was solubilized in apical media and mixed by sonication in a water bath for 30 s.
(§4) All treatments were conducted in duplicate modules in each laboratory. […] The apical and basolateral media were collected in glass vials and frozen at −80 °C for MS analysis and transported to UPitt for testing in the SQL-SAL module.

[3] = system: blood-brain barrier/neurovascular unit (BBB/NVU); conditions: human, 24 h
[4] = Table 2, clinical; cited from earlier work
[5] = system: blood-brain barrier/neurovascular unit (BBB/NVU); assay: BBB/NVU module penetration; conditions: BBB/NVU module, liver-conditioned media; TMAO 12 h, others 24 h
[6] = system: proximal tubule kidney (PTK) module; assay: Proximal tubule kidney (PTK) module, vitamin D3 metabolites
Method: Briefly, a single 100 μm diameter lumen was pre-cast in gelling collagen inside the microfluidic device and then seeded with passage 5 kidney PTEC to 100% confluence according to established methods[52]. The kidney proximal tubule modules were then perfused (30 μL/h) for 8 days with 100% kidney proximal tubule media prior to perfusion with mixed media solutions.
All media samples were stored in amber glass vials at −80 °C until LC-MS/MS analysis.

[7] = system: differentiated human jejunal enteroids; assay: Intestine module: jejunal enteroid Transwell transport and metabolism
Description: as §1, §2, §3, §4

For `C=C1CC[C@H](O)C/C1=C/C=C1\CCC[C@]2(C)[C@@H]([C@H](C)CCCC(C)C)CC[C@@H]12` [Vitamin D3, vitamin D3, reference compound], the “Liver metabolism, MPS” value ([1]; Table 2, MPS model, vitamin D3) was “VD3 → 25(OH)VD3 & 24,25(OH)2VD3”, the “Vitamin D3 perfused into the liver that was unrecoverable” value ([1]; initial four-organ functional study, no DBP) was 80% and the “Concentration in liver efflux media” value ([1]; vitamin D3 experiment, 96-well 4-cell liver module, 72 h, media pooled) was 1100 (pooled)^3 ng/ml. The “VD3 Recovered in Efflux Media” value (Liver MPS Organ Module; 0-24 h, Williams E Media + 1.25 mg/ml BSA (no DBP)) was 20%, the “VD3 Recovered in Efflux Media” value (Liver MPS Organ Module; 0-24 h, Williams E Media + 1.25 mg/ml BSA (no DBP), listed as VD3) was 20% recovery and the “VD3 Recovered in Efflux Media” value (Liver MPS Organ Module; 0-24 h, Williams E Media, 1.25 mg/ml BSA, 3 μM Vitamin D Binding Protein, listed as VD3) was 57% recovery. For the same compound, the “VD3 Recovered in Efflux Media” value (Liver MPS Organ Module; 24-48 h, Williams E Media, 1.25 mg/ml BSA, 3 μM Vitamin D Binding Protein) was about 100%, the “VD3 Recovered in Efflux Media” value (Liver MPS Organ Module; 24-48 h, Williams E Media, 1.25 mg/ml BSA, 3 μM Vitamin D Binding Protein, listed as VD3) was 100% recovery and the “Concentration in intestine apical media” value [2] was 20000 ± 2200 ng/mL. For the same compound, the “Concentration in intestine basolateral media” value [2] was 8300 ± 410 ng/mL, the “Concentration in brain neuronal efflux” value [3] was 0.19 ± 0.23 ng/mL and the “Concentration in brain vascular efflux” value [3] was 45 ± 6.2 ng/mL. For the same compound, the “Penetration through blood-brain barrier, Clinical” value [4] was “VD3 & 25(OH)VD3 Penetration”, the “Penetration through blood-brain barrier (MPS)” value [5] was 0.4% and the “Concentration in kidney efflux media” value ([6]; 0-48 h, 50% liver-conditioned, N=2) was 1.5 ng/mL. The “Concentration in kidney efflux media” value ([6]; 0-48 h, 80% liver-conditioned) was 4.3 ng/mL, the “Concentration in kidney efflux media” value ([6]; 0-120 h, 50% liver-conditioned) was 1.0 ng/mL and the “Concentration in kidney efflux media” value ([6]; 0-120 h, 80% liver-conditioned) was 1.4 ng/mL. For the same compound, the “Share of initial vitamin D3 concentration transported to basolateral media” value ([7]; 100 μM vitamin D3 in micelles apical, 24 h) was 23% and the “Concentration in micelle preparation” value ([7]; synthetic micelles containing 100 μM vitamin D3) was 36000 ± 4200 ng/mL.
